From article PMC12024912, “Druggability Studies of Benzene Sulfonamide Substituted Diarylamide (E3) as a Novel Diuretic” (Biomedicines, 2025)
Where two headings read alike, the source gives them in different places.

Tests used:
[1] = molecular target: T1, UT-B (Rattus norvegicus, UniProt P97689); assay: Erythrocyte lysis assay for UT-B inhibition, rat erythrocytes; type: cell-based
T1 construct: endogenous in cells; host or cells: erythrocytes from male SD rats
T1 sequence (P97689 1-384): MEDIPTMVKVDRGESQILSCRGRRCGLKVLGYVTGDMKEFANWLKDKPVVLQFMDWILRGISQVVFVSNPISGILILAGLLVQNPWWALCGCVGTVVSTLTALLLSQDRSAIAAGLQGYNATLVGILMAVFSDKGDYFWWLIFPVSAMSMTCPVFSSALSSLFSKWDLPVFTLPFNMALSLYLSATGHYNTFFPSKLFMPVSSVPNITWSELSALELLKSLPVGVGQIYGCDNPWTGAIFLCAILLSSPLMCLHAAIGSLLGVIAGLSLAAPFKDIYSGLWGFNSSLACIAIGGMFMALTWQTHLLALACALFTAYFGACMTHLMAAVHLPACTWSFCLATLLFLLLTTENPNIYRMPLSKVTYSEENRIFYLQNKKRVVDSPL
Procedure: The erythrocyte lysis assay was modified from a method described previously. Erythrocytes obtained from veins were diluted to a hematocrit value of 2% in hyperosmolar PBS containing 1.25 mol/L urea and 5 mmol/L glucose and incubated at r.t. for 2 h. Then, 99 μL erythrocyte suspension from a reservoir was added to each well of a 96-well round-bottom microplate, then 1 μL of the testing compound (500, 125, 31.25, 7.81, 1.95, 0.488, 0.122, 0.031, 0.0076 μmol/L dissolved in DMSO) was added to erythrocyte suspension and shook it up with microoscillator for 1 min. Following 5 min incubation, 20 μL erythrocyte suspension was transferred into 96-well black microplates preloaded with 180 μL isotonic PBS (10 mM, urea-free). Erythrocyte lysis was monitored at 710 nm optical density (OD710) for 6 min, with lysis rates calculated using control values from the same plate as Equation (1):Lysis (%) = 100 × (Aneg − Atest)/(Aneg − Apos)(1) where Atest is the absorbance value from the test well, Aneg is from a negative no-lysis control well, and Apos is from a positive full-lysis control.

[2] = Stability in simulated gastric fluid (SGF) and simulated intestinal fluid (SIF); type: in vitro ADME; conditions: 1 μmol/L; 37 °C; after 4 h
Procedure: (§1) Plasma from mice, rats, rabbits, and humans was obtained from blood after centrifugation at 3000 r/min for 10 min. Simulated gastric fluid (SGF, pH = 1, containing pepsin) and simulated intestinal fluid (SIF, pH = 6.8, containing trypsin) were configured previously in the experiments. SD rats and mice were collected, and after removing the mucus layer from the small intestine and colon, 20 times the volume of liquid bacterial culture medium was added. An intestinal microbiota suspension was obtained after anaerobic cultivation on a shaking table at 37 °C for 12 h. In the aforementioned systems, E3 was added at a final concentration of 1 μmol/L at 37 °C for different incubation times (0, 10, 20, 30, 60, 120, and 240 min). In liver metabolic stability assays, E3 was incubated with liver microsomes or liver homogenate from mice or rats for 60 min at 37 °C. The stop solution, 5 ng/mL tolbutamide (internal standard, IS) in acetonitrile, was added to stop the metabolic process. Post-centrifugation (18,000× g, 10 min, 4 °C), supernatants were subjected to liquid chromatography–tandem mass spectrometry (LC–MS/MS). Analyte-to-IS peak area ratios quantified residual percentages via Equation (2):Remaining% = (E3peak area/ISpeak area at different time)/(E3peak area/ISpeak area at 0 min) × 100%.(2)

[3] = Liver microsome metabolic stability, mouse; type: in vitro ADME; conditions: 60 min incubation, 37 °C
Procedure: as §1

[4] = Liver homogenate metabolic stability, mouse; type: in vitro ADME
Procedure: as §1

[5] = Pharmacokinetic study in rats; type: in vivo, rat
Procedure: Male SD rats were allowed free access to food in a controlled environment of 22 ± 2 °C, with a humidity level of 55% ± 5%, and maintained under a 12 h light/dark cycle. In the oral administration groups, E3 was delivered in a 0.5% CMC-Na solution at a dosage of 4 mg/kg body weight. Blood samples were collected by the orbital venous plexus and kept on ice at the following time points: 0.083, 0.167, 0.25, 0.5, 1, 2, 4, 6, 8, 12, and 24 h. E3 formulations (DMSO:PEG400:saline = 10:30:60, v/v) were administered via tail vein (1 mg/kg). Serial blood sampling (0.033, 0.083, 0.167, 0.333, 0.5, 1, 2, 4, 8, 12, and 24 h post-dose) yielded plasma via centrifugation (3000 r/min, 10 min, 4 °C), stored at −80 °C until PK analysis using DAS 3.2.8 (noncompartmental analysis model).
The analyte E3 and IS were dissolved in DMSO to generate the stock solutions. The working calibration of E3 was gradient-diluted with MeOH/H2O (1:1, v/v). Three microliters of working solutions were spiked with 27 μL of the blank rat plasma to establish the calibration standards. The final concentrations of the standard samples were 1, 2, 5, 10, 50, 250, 500, and 1000 ng/mL. Quality control samples (3/100/800 ng/mL) were prepared using identical protein precipitation protocols. Briefly, 30 μL calibrators and biological matrices were mixed with 450 μL stop solution, vortexed (5 min), and centrifuged (18,000× g, 10 min, 4 °C). Processed supernatants (2 μL injection volume) were subjected to LC-MS/MS analysis.
The analysis was conducted by an Xevo TQ-S Cronos Triple Quadrupole Mass Spectrometer coupled with an ACQUITY UPLC (Waters Corp, Milford, MA, USA). The chromatographic separation was conducted in an ACQUITY UPLC BEH C18 1.7 µm column (Waters, Milford, MA, USA) at 40 °C with a flow rate of 0.4 mL/min. The mobile phases were 0.1% (v/v) formic acid in water (A) and pure ACN (B). […] An electrospray ionization (ESI) source with multiple–reaction monitoring (MRM) in positive–ion mode was employed to quantify the analytes with the transitions of m/z 385.11 > 244.19 and m/z 271.136 > 91.01 for E3 and IS, respectively. The optimized cone voltage is 10 V and 24 V for E3 and IS, respectively. The collision energy is 12 V and 32 V for E3 and IS, respectively. MassLynx v4.2 (Waters Corp, Milford, MA, USA) was used for data acquisition and analysis.

[6] = male, SD, rat, plasma, iv, 1 mg/kg, single i.v. 1 mg/kg, n = 5
[7] = male, SD, rat, plasma, iv, single i.v. 1 mg/kg, n = 5
[8] = male, SD, rat, plasma, po, 4 mg/kg, single p.o. 4 mg/kg, n = 5
[9] = male, SD, rat, plasma, po, single p.o. 4 mg/kg, n = 5

Structure (SMILES): CC(=O)c1ccc(C(=O)Nc2cccc(NS(=O)(=O)c3ccccc3)c2)o1 [Compound E3, 5-acetyl-N-(3-(phenylsulfonamido)phenyl)furan-2-carboxamide]
- maximum inhibition rate, rat cells ([1]; erythrocyte lysis assay): approximately 100%
- IC50 ([1]; erythrocyte lysis model, rat, n = 3, means, read-out: IC50 (μM) Rat): 0.01 µM
- IC50 ([1]; red blood cell lysis assay, read-out: IC50 for UT-B-promoted urea transport, rats): 0.0076 µM
- E3 remaining in SGF (pH 1.0) and SIF (pH 6.8) [2]: More than 90%
- remaining amount, mouse liver microsomes [3]: 36.8%
- CLhep, mouse liver homogenate ([4]; calculated with 45 mg/g liver, 50 g liver/kg): 99.3 mL/min/kg
- remaining at 1 h ([4]; mouse, liver homogenate, 60 min incubation, 37 °C, n=3): 39.8%
- plasma concentration within 24 h ([5]; after intragastric gavage administration): less than 2 ng/mL
- MRT [5, 6]: 1.1 h
- half-life [5, 6]: 1.9 h
- AUC(0-inf) [5, 7]: 1120 ng·h/mL
- AUC(0-t) [5, 7]: 1120 ng·h/mL
- Cmax ([5]; male, SD, rat, plasma, iv, single i.v. 1 mg/kg, n = 5, read-out: C max): 2540 ng/mL
- bioavailability ([5]; male, SD, rat, plasma, oral, p.o. 4 mg/kg vs i.v. 1 mg/kg, read-out: F (oral bioavailability)): 21.1%
- MRT [5, 8]: ~6.1 h
- Tmax [5, 8]: ≤ 2 h
- half-life [5, 8]: ~4.9 h
- Cmax ([5]; male, SD, rat, plasma, po, p.o. 4 mg/kg, conversion of 170.3 ng/mL, read-out: Cmax in molar units): 443 nM
- AUC(0-inf) [5, 9]: 943 ng·h/mL
- AUC(0-t) [5, 9]: 919 ng·h/mL
- CL/F [5, 9]: 70 mL/min/kg
- Cmax ([5]; male, SD, rat, plasma, po, single p.o. 4 mg/kg, n = 5, read-out: C max): 170 ng/mL
- V (V/F row; V for the i.v. group) ([5]; single i.v. 1 mg/kg, n = 5): 2.5 L/kg
- V/F ([5]; single p.o. 4 mg/kg, n = 5): 30.1 L/kg
